EC50 data for 15 molecules are collected here from patent publication US10774076B2, “Benzazole compounds and methods for making and using the compounds” (Rigel Pharmaceuticals, Inc., priority 2015, dated 2020).

The subject of one assay is IL23-p19. The experiment in a line: Compound screening using DC cells: LPS-induced IL-23 (p19/p40) ELISA in IFNγ-primed dendritic cells differentiated from human PBMC. Type of assay: cell-based. The following applies: Dendritic cell, human PBMC-derived dendritic cells, LPS 1 μg/ml, 18 hours, 10 pt. The protocol:
Compound Screening Using DC Cells
Human PBMC cells (400 million) obtained from the vendor were transferred into a T-175 flask containing 15 ml RPMI media (10% FBS) and incubate for 2 hours at 37° C. After 2 hours, the media including floating cells was aspirated out carefully and 12 ml of fresh RPMI media (10% FBS) containing GMCSF (100 ng/ml) and IL4 (20 ng/ml) was added, and the flask was kept in a 37° C. incubator for 7 days.
After 3 days, fresh GMCSF (100 ng/ml) and IL4 (20 ng/ml) were added to the flask and the incubation continued. After 7 days, the fully differentiated cells were harvested by spinning down (1200 rpm/5 min) and aspirating the media. The cells were suspended in fresh RPMI media (10% FBS) containing 50 ng/ml IFNγ (1000 U/ml) and then plated (50K/well in 100 μl) onto a white clear bottom 96 well plate and left in a 37° C. incubator for 24 hours.
After 24 hours incubation, 100 μl of RPMI media was added containing 2× concentrated test compound per well to the above cell-culture media (final concentration becomes 1×) and the plates were pre-incubated for 1 hour at 37° C. before stimulating with LPS.
After 1 hour compound pre-incubation, 10 μl per well of 20× concentrated LPS solution in RPMI media was added to give a final concentration of 1 μg/ml. The mixture was shaken and incubated the plates at 37° C. for an additional 18 hours.
155 μl of the supernatant was harvested from each well carefully (without the tip touching the bottom of the well) and to the remaining 50 μl/well of the cell culture plate was added 50 μl of Cell Titer Glo reagent. The mixture was incubated for 1-2 minutes on a shaker and the plate was read for luminescence intensity to determine the compound cytotoxicity. The cell culture supernatant collected above was used to carry out IL23 ELISA (65 μl—Supernatant) and IL10 ELISA (90 μl—Supernatant) as described below.
Human IL-23 (p19/p40) ELISA Protocol (e-Biosciences)
To 10.5 ml PBS add 50 μl of anti-IL23 (p19) was added capture antibody (2.5 μg/ml). The mixture was mixed well and 100 μl of the coating solution was added to each well of the 96 well white plates from Pierce. The wells were covered and incubated overnight at 4° C.
The anti-IL23 (p19)-antibody-coated plates were washed 2× using TBST (use plate washer) and blocked using 200 μl of 0.5% Casein for 1.5-2 hours at room temperature with shaking.
The plates were washed 2× using TBST and the supernatant was transferred (65 μl/well) to the above pre-blocked/IL23(p19)-antibody-coated 96 well plate, and incubated at room temperature for 1.5 hours with shaking.
The plates were washed 4× using TBST (plate washer) and 100 μl/well detection antibody solution prepared from 2 μl of biotin labeled anti-IL-12 (p40/p70) antibody in 11 ml 1% BSA/PBS solution (I-5000 dilution) was added. The plates were incubated for 1 hour with shaking at Room temperature.
Again, the plates were washed 4× with TBST and 100 μl of HRP labeled Streptavidin (R&D Systems) solution (10 μl/10 ml 1% BSA solution) was added, and the plates were incubated at room temperature for another 45 minutes with shaking.
After 45 minutes, the plates were washed with TBST 4× and 100 ul/well Super Signal ELISA Pico Chemiluminescent Substrate from Pierce (3.5 ml A+3.5 ml B+3.5 ml MQ water) was added. The plates were shaken for 1-2 minutes then read on a plate reader.
Background: In an ELISA, binding on a coated surface is turned into a signal by an enzyme label.

Another assay concerns IL23p19. The experiment in a line: LPS Induced IL23p19 in THP-1 Cells (with IFNγ Primed) Assay. Type of assay: cell-based. Particulars: Homo sapiens, IFNγ primed (50 ng/mL), LPS 1 ug/mL, 18 hours, 10 pt, read-out: IL23-p19 ELISA, THP1-IFNy, LPS, 10 pt EC50. The source says: LPS Induced IL23p19 in THP-1 Cells (with IFNγ Primed) Assay
THP-1 Cells (ATCC, Cat # TIB-202), Dimethyl Sulfoxide (DMSO) (Sigma-Aldrich, Cat # D2650), RPMI 1640 (Cellgro, Cat #10-040-CM), Fetal Bovine Serum (Sigma, Cat # F4135), Albumin From Bovine Serum (BSA) (Sigma-Aldrich, Cat # A7906), LPS (Serotype K-235, Sigma, Product Number L 2143), IFNγ (Peprotech, Cat #300-02)
Capture antibody: Human IL-23p19 ELISA (e-Bioscience, Cat. #14-7238-85),
Detection antibody: Primary Mouse Biotinylated anti-human IL-12(p40/p70) (e-Bioscience, Cat. #13-7129-85), Secondary HRP-conjugated Streptavidin (R&D Systems, Cat # DY998), 1×PBST Washing Buffer (PBS-Tween tablet) (VWR International, Cat #80058-558), ELISA Blocking Buffer (PBS with 1% BSA), ELISA Dilution Buffer (PBS with 1% BSA), 384 Well Flat-Bottom, MaxiSorp Black Immuno Plates (Thermo Scientific, Cat #12-565-346), 384 Well Flat-Bottom, White Tissue Culture Plates (Thermo Scientific, Cat #12-565-343), Super Signal ELISA Pico Chemiluminescent Substrate (Thermo Scientific, Cat #37070), Cell Titer Glo reagent (Promega, Cat # G7573), Positive control, IKK2VI inhibitor (Calbiochem, Cat #401483), AquaMax 4000 plate washer (Molecular Devices), Luminometer, Wallac Victor2 1420 Multilabel Counter. Method THP-1 Cells Stimulation:
On day 1, 50K/well THP-1 cells were seeded and primed with IFNγ (50 ng/mL) in 384-well plates for about 18 hours in RPMI media with 10% FBS. On day 2, the compound was serially diluted in DMSO from 5 mM in 3-fold dilutions, and then diluted 1:125 in RPMI media with 10% FBS. 50 μL/well 2× compound was added to 50 μL/well THP-1 cells (with IFNγ primed) in duplicate in 384 well tissue culture plates. The cells were pre-incubated with compound for 1 hour at 37° C., 5% CO2 before addition of 10 μL/well 11×LPS to give a final concentration of 1 ug/mL LPS. Day 3, after stimulation for 18 hours at 37° C., 5% CO2, the assay plate was centrifuged and 70 μL/well supernatant was harvested. IL-23p19 protein in 70 μL/well of supernatant was measured by sandwich ELISA, and 25 μl/well Cell Titer Glo reagent was added to the remaining cells to measure compound toxicity.
Human IL-23p19 Sandwich ELISA:
Maxisorp immuno ELISA plates were pre-coated with 25 μL/well of anti-IL-23p19 capture antibody (2.5 ug/mL) in PBS overnight at room temperature. After washing with 1×PBST, the plates were blocked using 100 μL/well of 1% BSA in PBS for 2 hours at room temperature. The plates were washed three times with 1×PBST and 70 μL/well supernatant were added. The plates were incubated at room temperature for 2 hours with shaking and washed three times with 1×PBST. 25 μL/well of biotin labeled anti-IL-12(p40/p70) detection antibody (100 ng/mL) in PBS with 1% BSA was added and the plates were incubated at room temperature for 2 hours with shaking. After washing three times with 1×PBST, 25 μL/well of streptavidin-HRP (1:200) in PBS with 1% BSA was added and the plates were incubated at room temperature for 20 minutes with shaking. The plates were washed three times with 1×PBST and 25 μL/well of Super Signal ELISA Pico Chemiluminescent Substrate were added. The plates were read with a luminometer, and the chemiluminescence values were entered into Athena (Rigel) for curve fitting, EC50 calculation, and database storage.

For orientation: EC50 means the concentration giving half of the maximal effect. In the case of `O=C(Nc1cc2oc(N3CCOCC3)nc2cc1N1CCOCC1)c1csc(-c2cn[nH]c2)n1` [Compound I-49, N-(2,5-dimorpholinobenzo[d]oxazol-6-yl)-2-(1H-pyrazol-4-yl)thiazole-4-carboxamide], the EC50 is 48.1 nM in the assay on IL23-p19 and 50.4 nM with IL23p19.
The like results for `O=C(Nc1cc2oc(N3CCCCC3)nc2cc1N1CCCCC1)c1csc(-c2cn[nH]c2)n1` [Compound I-35, N-(2,5-di(piperidin-1-yl)benzo[d]oxazol-6-yl)-2-(1H-pyrazol-4-yl)thiazole-4-carboxamide] were, in that order, 666 nM and 321 nM.
For `O=C(Nc1cc2oc(N3CCCCC3)nc2cc1N1CCCCC1)c1ccc(-c2cn[nH]c2)o1` [Compound I-31, N-(2,5-di(piperidin-1-yl)benzo[d]oxazol-6-yl)-5-(1H-pyrazol-4-yl)furan-2-carboxamide] the same measures were 444 nM and 144 nM.
As for `O=C(Nc1cc2oc(N3CCOCC3)nc2cc1N1CCCCC1)c1ccc(-c2cn[nH]c2)o1` [Compound I-3, N-(2-morpholino-5-(piperidin-1-yl)benzo[d]oxazol-6-yl)-5-(1H-pyrazol-4-yl)furan-2-carboxamide], the EC50 with IL23-p19 came out at 39.1 nM; in the assay with IL23p19 it was 31.4 nM.
For `O=C(Nc1cc2oc(N3CCOCC3)nc2cc1N1CCC(F)(F)CC1)c1ccc(-c2cn[nH]c2)o1` [Compound I-27, N-(5-(4,4-difluoropiperidin-1-yl)-2-morpholinobenzo[d]oxazol-6-yl)-5-(1H-pyrazol-4-yl)furan-2-carboxamide] the same measures were 747 nM and 528 nM.
For `CN1CCN(c2nc3cc(N4CCCCC4)c(NC(=O)c4csc(-c5cn[nH]c5)n4)cc3o2)CC1` [Compound I-20, N-(2-(4-methylpiperazin-1-yl)-5-(piperidin-1-yl)benzo[d]oxazol-6-yl)-2-(1H-pyrazol-4-yl)thiazole-4-carboxamide] the same measures were 18 nM and 22.4 nM.
Take `O=C(Nc1cc2oc(N3CCOCC3)nc2cc1N1CCCC(F)C1)c1ccc(-c2cn[nH]c2)o1` (stereo not drawn) [Compound I-38, N-(5-(3-fluoropiperidin-1-yl)-2-morpholinobenzo[d]oxazol-6-yl)-5-(1H-pyrazol-4-yl)furan-2-carboxamide]: the EC50 amounted to 14.1 nM with IL23-p19 and 31.6 nM with IL23p19.
The like results for `COCCN(C)c1nc2cc(N3CCCCC3)c(NC(=O)c3csc(-c4cn[nH]c4)n3)cc2o1` [Compound I-51, N-(2-((2-methoxyethyl)(methyl)amino)-5-(piperidin-1-yl)benzo[d]oxazol-6-yl)-2-(1H-pyrazol-4-yl)thiazole-4-carboxamide] were, in that order, 41.1 nM and 74.2 nM.
Consider `CN(CCN1CCOCC1)c1nc2cc(N3CCCCC3)c(NC(=O)c3ccc(-c4cn[nH]c4)o3)cc2o1` [Compound I-53, N-(2-(methyl(2-morpholinoethyl)amino)-5-(piperidin-1-yl)benzo[d]oxazol-6-yl)-5-(1H-pyrazol-4-yl)furan-2-carboxamide], for which the EC50 is 121 nM with IL23-p19 and 180 nM in the assay on IL23p19.
The like results for `CN1CCN(c2nc3cc(N4CCCCC4)c(NC(=O)c4ccc(-c5ccc(N)nc5)o4)cc3o2)CC1` [Compound I-15, 5-(6-aminopyridin-3-yl)-N-(2-(4-methylpiperazin-1-yl)-5-(piperidin-1-yl)benzo[d]oxazol-6-yl)furan-2-carboxamide] were, in that order, 1690 nM and 73000 nM.
Regarding `O=C(Nc1cc2oc(N3CCOCC3)nc2cc1N1CCC(F)CC1)c1ccc(-c2cn[nH]c2)o1` [Compound I-23, N-(5-(4-fluoropiperidin-1-yl)-2-morpholinobenzo[d]oxazol-6-yl)-5-(1H-pyrazol-4-yl)furan-2-carboxamide], the EC50 in the assay on IL23-p19 was 157 nM; in the assay on IL23p19, 75.7 nM.
For `Nc1ccc(-c2ccc(C(=O)Nc3cc4oc(N5CCOCC5)nc4cc3N3CCCCC3)o2)cn1` [Compound I-1, 5-(6-aminopyridin-3-yl)-N-(2-morpholino-5-(piperidin-1-yl)benzo[d]oxazol-6-yl)furan-2-carboxamide] the same measures were 4730 nM and 898 nM.
The like results for `O=C(Nc1cc2oc(N3CCOCC3)nc2cc1N1CCCC1)c1ccc(-c2cn[nH]c2)o1` [Compound I-46, N-(2-morpholino-5-(pyrrolidin-1-yl)benzo[d]oxazol-6-yl)-5-(1H-pyrazol-4-yl)furan-2-carboxamide] were, in that order, 37.5 nM and 58.7 nM.
For `CN1CCN(c2nc3cc(N4CCCCC4)c(NC(=O)c4ccc(-c5cc[nH]n5)o4)cc3o2)CC1` [Compound I-17, N-(2-(4-methylpiperazin-1-yl)-5-(piperidin-1-yl)benzo[d]oxazol-6-yl)-5-(1H-pyrazol-3-yl)furan-2-carboxamide] the same measures were 1020 nM and 1230 nM.
For `Cc1cc(-c2nc(C(=O)Nc3cc4oc(N5CCOCC5)nc4cc3N3CCCCC3)cs2)ccn1` [Compound I-14, 2-(2-methylpyridin-4-yl)-N-(2-morpholino-5-(piperidin-1-yl)benzo[d]oxazol-6-yl)thiazole-4-carboxamide], the EC50 in the assay on IL23-p19 amounted to 17900 nM; with IL23p19, 10200 nM.
